Data set [1] in a line: tissue homogenate binding by ultrafiltration. The class given is in vitro ADME, mice. As to the method: After centrifugation of mixtures from tissue or microsomal incubations for 15 min at 4 °C, the supernatants were filtered through a 0.2 -µm-pore-size syringe filter and stored in the autosampler at 6 °C until analysis by LC-MS/MS as […]
SM5 Tissue binding of SH045
The tissue binding of SH045 was analyzed exemplarily in lung, liver and kidney homogenate using ultrafiltration [5]. Appropriate concentrations of homogenate and SH045 were optimized out of data from a series of various dilution ratios of tissue homogenates (1/2, 1/5, 1/10 and 1/20, w/v) and SH045 concentrations in spiked homogenate (liver and kidney: 0.05, 0.1, 0.5, 1, 2, 5 µg/mL; lung: 1, 2, 5, 10, 20, 50 µg/mL, not shown). Tissue binding assays were performed as follows: 448 µL tissue homogenates (1/10, w/v) were mixed with 2 µL SH045 (final: 50 µg/ml for lung, 2 µg/ml for liver and 1 µg/ml kidney). After incubation for 15 min at 37 °C at 450 rpm, 400 µL of the mixture was transferred to centrifugal filter units (30kDa) and centrifuged for 20 min at 2000g and 37 °C. 20 µL of the mixture and the filtrate were analyzed for SH045. The concentration in the filtrate refers to the unbound SH045 concentration according to tissue binding (%) = (ctot – cfiltrate) / ctotal × 100%. […]
Mean maximum rate vmax and Michaelis- […]
CLint,micr the intrinsic clearance CLint, equal to the maximum enzyme activity of liver and for in vitro-in vivo exploration of hepatic clearance CLhep in mouse and human using the “well-stirred” model [6].
(§1) SM7 Identification of metabolism pathways and metabolites of SH045 in MLM and HLM To determine possible metabolism pathways of SH045 in MLM and HLM, an in vitro inhibition approach was performed with CYP-isoform specific inhibitors (final concentration): ciprofloxacin (CYP1A2; 150 µM), pilocarpine (CYP2A6; 50 µM), ticlopidine (CYP2B6; 5 µM), quercetin (CYP2C8; 2 µM), sulfaphenazole (CYP2C9; 10 µM), fluvoxamine (CYP2C19; 10 µM), quinidine (CYP2D6; 10 µM), 4-methyl pyrazole (CYP2E1; 100 µM) and ketoconazole (CYP3A4; 1 µM) [7, 8]. […]

Data set [2] is described as follows: time-dependent metabolization (stability) in MLM and IVIVE of hepatic clearance. The class given is in vitro ADME, mouse.
From the text: In the widely used concept of the “well-stirred” model, liver represents a single uniform compartment. It is further assumed that the concentration of unbound SH045 leaving the liver is in equilibrium with its unbound concentration in hepatocytes (detailed calculation in Supplementary Materials SM8, summarized values in SR4). Briefly, microsomal intrinsic clearance was converted to hepatic clearance: CLhep = Q × fu × CLint/Q + (fu × CLint), where fu is the unbound fraction of SH045 in blood and Q is the hepatic blood flow in mice.
For this purpose, remaining concentrations of SH045 in microsomes were determined to calculate the intrinsic microsomal clearance CLint,micr, the intrinsic clearance CLint, equal to the maximum enzyme activity of liver and for in vitro-in vivo exploration of hepatic clearance CLhep in mouse and human using the well-stirred model. The algorithm for these calculations is given in detail in the Supplementary Materials SM8. […]
All microsome incubations were stopped with 1 mL ice -cold ACN containing 5 µg/mL IS, vortexed for 1 min and cooled at -20 °C for 10 min. […]
SM6 Metabolization studies in MLM and HLM and calculation of hepatic clearance For determination of vmax and Km of the NADPH-dependent microsomal depletion of SH045, the following incubations were performed for MLM and HLM, respectively. 2 µL SH045 (final concentration 0.5 – 100 µM, in triplicate), 12.5 µL HLM or MLM (finally 0.5 mg/mL protein) and 460.5 µL DPBS were vortexed and preincubated 37 °C for 5 min. The reaction was initiated by addition of 25 µL analogously pre-incubated β-NADPH (finally: 1 mM).
After gentle shaking at 37 °C and 300 rpm for 10 min, incubations were terminated and samples prepared as described […]
Testosterone (10 µM in ACN/DPBS 2/3, v/v) instead of SH045 was used as positive control and analyzed by an appropriate HPLC method with UV detection.
Negative controls contained either no NADPH, no MLM or HLM or none of them. […]
Menten constant Km were calculated using Lineweaver-Burk transformation. From Km an appropriate drug concentration of 2 µM was derived as prerequisite for experimental in vitro determination of t1/2 required for further exploration of clearance.
For this purpose, microsomes were incubated as described above with 2 µM SH045 for indicated time intervals up to 30 min. The remaining concentrations of SH045 were determined to calculate the intrinsic microsomal clearance CLint,micr the intrinsic clearance CLint, equal to the maximum enzyme activity of liver and for in vitro-in vivo exploration of hepatic clearance CLhep in mouse and human using the “well-stirred” model [6].
as §1, with “8]. The inhibitors were dissolved in DPBS and appropriate methanol, the organic solvents not” for “8].”
SH045 (2 µM) was pre-incubated with MLM or HLM (0.5 mg/mL) and the specific inhibitor for 5 min at 37 °C in DPBS.
Ticlopidine, a time-dependent inhibitor was pre-incubated for 15 min [9]. Incubations were performed in triplicate with NADPH (1 mM) in a final volume of 500 µL for 2 min and 10 min with pre-incubated MLM and HLM, respectively, terminated with 1 mL ice-cold ACN and processed as described above for LC-MS/MS. A sample without any inhibitor served as a positive control. Incubations with an equal volume of DMSO instead of SH045 and samples without NADPH, MLM or HLM or both, respectively, served as negative controls.
To explore metabolites of SH045 formed by microsomes, D PBS, alamethicin (25 µg/mL) [10] and MLM or HLM (1.0 […]

Data set [3] concerns ischemic lungs explanted from mice. The arrangement: method as in PMID 29522264. The conditions noted are these: ex vivo; cited from earlier work.
The nature of data set [4]: tissue homogenate binding by ultrafiltration. The class given is in vitro ADME, mice. The following applies: mean ± RSD.

As for `C=C[C@@](C)(O)CC[C@H]1C(=C)C[C@H](OC(=O)NC)[C@H]2C(C)(C)CCC[C@]12C` [SH045, (1S,4S,4aR,8aS)-4-((S)-3-Hydroxy-3-methylpent-4-en-1-yl)-4a,8,8-trimethyl-3-methylenedecahydronaphthalen-1-yl methylcarbamate], the Tissue binding is given as 98% in data set [1] (kidney); 97% in data set [1] (liver); 97% in data set [1] (lung); 97.6 ± 0.9% in data set [4] (kidney homogenate 1:10, SH045 1 µg/mL, 30 min); 97.8 ± 0.4% in data set [4] (kidney homogenate 1:10, SH045 1 µg/mL, 60 min); 98.3 ± 0.2% in data set [4] (kidney homogenate 1:10, SH045 1 µg/mL, 120 min). The Tissue binding worked out at 98.3 ± 0.1% in data set [4] (kidney homogenate 1:10, SH045 1 µg/mL, 240 min); 99.4 ± 0.1% in data set [4] (liver homogenate 1:10, SH045 2 µg/mL, 30 min); 97.1 ± 1.0% in data set [4] (liver homogenate 1:10, SH045 2 µg/mL, 60 min); 99.0 ± 0.1% in data set [4] (liver homogenate 1:10, SH045 2 µg/mL, 120 min); 97.8 ± 0.9% in data set [4] (liver homogenate 1:10, SH045 2 µg/mL, 240 min); 93.5 ± 1.2% in data set [4] (lung homogenate 1:10, SH045 50 µg/mL, 30 min). For the same molecule, the Tissue binding in data set [4] (lung homogenate 1:10, SH045 50 µg/mL, 60 min) is 94.9 ± 0.1%; in data set [4] (lung homogenate 1:10, SH045 50 µg/mL, 120 min) it was 97.8 ± 0.5%; in data set [4] (lung homogenate 1:10, SH045 50 µg/mL, 240 min) it was 97.4 ± 0.8%. For the same molecule, in data set [2] (CD-1, mouse, liver microsomes, mouse liver microsomes, read-out: CLint, micr), the microsomal CLint at 2 µM came out at 1170 µL/min/mg. In data set [2] (CD-1, mouse, liver microsomes, mouse, scaled from CLint,micr), this molecule had an intrinsic metabolic clearance (CLint scaled) at 2 µM of 276 L/h/kg. For the same molecule, the half-life at 2 µM in data set [2] (male, CD-1, pH 7.4, mouse liver microsomes 0.5 mg/mL, 2 µM SH045, NADPH) was found to be 1.18 min. The “CLint, micr” value in data set [2] (mouse liver microsomes) turned out to be 1173.6 µL/min/mg. The CLhep in data set [2] (mouse, predicted by well-stirred model, fu 0.3%, Q 90 mL/min/kg) is 0.717 L/h/kg. The CLint in data set [2] (mouse, scaled from CLint,micr) stood at 275.68 L/h/kg. Further, in data set [3], the “edema formation after reperfusion” value is “reduced edema formation”.

Source of the values: article PMC8998618, “A Pharmacokinetic and Metabolism Study of the TRPC6 Inhibitor SH045 in Mice by LC-MS/MS” (International Journal of Molecular Sciences, 2022).
